Consider 2 compounds from US20230235378A1, “LZHEIMER'S DISEASE-SPECIFIC ALTERATIONS OF PROTEIN KINASE C EPSILON (PKC-EPSILON PROTEIN LEVELS” (WEST VIRGINIA UNIVERSITY BOARD OF GOVERNORS ON BEHALF OF …, priority 2010, published 2023).

The test system of series [1] is TACE. Nature of the series: TACE assay in cell homogenates of neuronal cells. In kind it is cell-based. Particulars: human SH-SY5Y, N2a mouse neuroblastoma cells, primary neurons from rat hippocampus. Here is the method:
TACE Assay. TACE was measured by incubating 5 μl cell homogenate, 3 μl buffer (50 mM Tris-HCl 7.4 plus 25 mM NaCl plus 4% glycerol), and 1 μl of 100 μM TACE substrate IV (Aβz-LAQAVRSSSR-DPa) (Calbiochem) for 20 min at 37° in 1.5-ml polypropylene centrifuge tubes (Jin et al., Anal. Biochem. 2002; 302: 269-75). The reaction was stopped by cooling to 4° C. The samples were diluted to 1 ml and the fluorescence was rapidly measured (ex=320 nm, em=420 nm) in a Spex Fluorolog 2 spectrofluorometer.
Buxbaum et al., J. Biol. Chem. 1998; 273: 27765-67; Etcheberrigaray et al., Proc. Natl. Acad. Sci. USA. 2006: 103:8215-20. However, many of these earlier studies were carried out in fibroblasts and other non-neuronal cell types, which appear to respond differently to PKC activators than neurons.

Series [2] deals with Aß. Nature of the series: Aß production in N2a neuroblastoma cells transfected with human APPSwe/PS1D (Aß 1-42 ELISA). It is filed as cell-based, mouse. To be noted: for levels of both intracellular and secreted Aß: 24 h incubation, various concentrations. Here is the method: (§1) Aß Measurement and Cell Viability Assay. Aß was measured using an Aß 1-42 human fluorimetric ELISA kit (Invitrogen) according to the manufacturer's instructions. Results were measured in a Biotek Synergy HT microplate reader. AlamarBlue and CyQuant NF (Invitrogen) according to the manufacturer's instructions.
To measure the effects of PKC activation on Aß production, we used mouse neuro2a (N2a) neuroblastoma cells transfected with human APPSwe/PS1D, which produce large quantities of Aβ. Petanceska et al., J. Neurochem. 1996; 74: 1878-84. […] With bryostatin, which activates PKC by binding to the diacylglycerol-binding site, the inhibition was biphasic, with concentrations of 20 nM or higher producing no net effect. This may be explained by the ability of this class of PKC activators to downregulate PKC when used at high concentrations.
(In general: In an ELISA, binding on a coated surface is turned into a signal by an enzyme label.)

Series [3] deals with T1, purified PKC (Homo sapiens, UniProt Q02156).
T1 construct: purchased Calbiochem
T1 sequence (Q02156 1-737): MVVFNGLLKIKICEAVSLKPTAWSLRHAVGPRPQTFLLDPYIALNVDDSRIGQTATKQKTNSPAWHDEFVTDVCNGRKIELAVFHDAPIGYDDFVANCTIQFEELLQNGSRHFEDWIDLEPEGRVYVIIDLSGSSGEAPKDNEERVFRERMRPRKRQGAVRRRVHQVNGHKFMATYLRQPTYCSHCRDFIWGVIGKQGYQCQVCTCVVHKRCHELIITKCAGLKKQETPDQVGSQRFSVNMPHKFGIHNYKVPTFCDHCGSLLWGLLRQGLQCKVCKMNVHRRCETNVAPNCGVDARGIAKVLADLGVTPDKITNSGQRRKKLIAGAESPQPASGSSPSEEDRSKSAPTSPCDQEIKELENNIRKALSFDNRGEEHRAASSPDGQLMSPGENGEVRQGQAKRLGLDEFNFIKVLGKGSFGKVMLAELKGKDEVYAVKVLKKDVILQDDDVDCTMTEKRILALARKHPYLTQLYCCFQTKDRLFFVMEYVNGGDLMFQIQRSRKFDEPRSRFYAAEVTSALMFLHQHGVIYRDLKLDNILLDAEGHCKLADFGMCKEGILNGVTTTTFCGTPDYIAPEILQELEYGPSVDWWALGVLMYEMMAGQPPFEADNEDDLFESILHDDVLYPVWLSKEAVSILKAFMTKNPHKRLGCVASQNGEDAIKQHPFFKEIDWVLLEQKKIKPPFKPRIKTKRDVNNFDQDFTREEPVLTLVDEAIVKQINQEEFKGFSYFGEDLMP
Nature of the series: PKC isozyme specificity: purified PKC preincubated with compound, activity measured radiometrically. In kind it is biochemical. The method, then: (§2) Protein Kinase C Assay. Rat hippocampal cells were cultured and scraped in 0.2 ml homogenization buffer (20 mM Tris-HCl, pH 7.4, 50 mM NaF, 1 μg/ml leupeptin, and 0.1 mM PMSF) and homogenized by sonication in a Marsonix micro-probe sonicator (5 sec, 10 W). To measure PKC, 10 μl of cell homogenate or purified PKC isozyme (purchased from Calbiochem) was incubated for 15 min at 37° C. in the presence of 10 μM histones, 4.89 mM CaCl2, 1.2 μg/μl phosphatidyl-L-serine, 0.18 μg/μl 1,2-dioctanoyl-sn-glycerol, 10 mM MgCl2, 20 mM HEPES (pH 7.4), 0.8 mM EDTA, 4 mM EGTA, 4% glycerol, 8 μg/ml aprotinin, 8 μg/ml leupeptin, and 2 mM benzamidine. 0.5 μCi [γ-32P]ATP was added and 32P-phosphoprotein formation was measured by adsorption onto phosphocellulose as described previously. Nelson and Alkon, J. Neurochemistry. 1995; 65: 2350-57. For measurements of activation by BR-101 (DCP-LA) and similar compounds, PKC activity was measured in the absence of diacylglycerol and phosphatidylserine, as described by Kanno et al., and PKC δ, ε, η, and were measured in the absence of added EGTA and CaCl2, as described by Kanno et al., J. Lipid Res. 2006; 47: 1146-50. Low concentrations of Ca2+ are used because high Ca2+ interacts with the PKC phosphatidylserine binding site and prevents activation. For measurements of bryostatin activation, 1,2-diacylglycerol was omitted unless otherwise stated.
To determine their PKC isozyme specificity, the new compounds were preincubated with purified PKC for five minutes and the PKC activity was measured radiometrically.

For series [4], the system named is Endothelin-converting enzyme (ECE). Nature of the series: ECE assay in neuroblastoma cells (fluorimetric, McaBK2). It is filed as cell-based, human. Particulars: bryostatin 0.27 nM, BR-101 1 μM, BR-111 1. Here is the method: ECE Assay. SH-5757 neuroblastoma cells were incubated with bryostatin (0.27 nM), BR-101 (DCP-LA) (1 μM), and BR-111 (DHA-CP6) (1 Endothelin-converting enzyme (ECE) was measured fluorimetrically using the method of Johnson and Ahn, Anal. Biochem. 2000; 286: 112-118. A sample of cell homogenate (20 μl) was incubated in 50 mM MES-KOH, pH 6.0, 0.01% C 12E10 (polyoxyethylene-10-lauryl ether), and 15 μM McaBK2 (7-Methoxycoumarin-4-acetyl [Ala7-(2,4-Dinitrophenyl)Lys9]-bradykinin trifluoroacetate salt) (Sigma-Aldrich). After 60 min at 37° C., the reaction was quenched by adding trifluoroacetic acid to 0.5%. The sample was diluted to 1.4 ml with water and the fluorescence was measured at ex=334 nm, em=398 nm.

In series [5] the test system is Aß. Nature of the series: Degradation of exogenous monomeric Aβ-42 in SH-SY5Y cells. In kind it is cell-based, human. Particulars: 0.01 to 10 μM; 100 nM exogenous monomeric Aβ-42; 24 h. Here is the method: as §1
To determine whether the reduced levels of Aß caused by PKC activators were due to inhibition of Aß synthesis or activation of Aß degradation, we applied BR-111 (DHA-CP6) (0.01 to 10 μM) and low concentrations (100 nM) of exogenous monomeric Aβ-42 to cultured SH-SY5Y cells. This concentration of Aß is too low to produce measurable toxicity or cell death. Since SH-SY5Y cells produce only trace amounts of Aβ, this experiment was an effective test of the ability of PKC activators to enhance Aß degradation. By 24 h, most of the Aß had been taken up by the cells and the concentration of Aß in the culture medium was undetectable.

The nature of series [6]: Cell viability assay (alamar Blue and CyQuant staining). It is filed as cell-based. Here is the method: as §1
Background: Resazurin is reduced to fluorescent resorufin, in cell work by metabolically active cells.

For series [7], the system named is rats. To be noted: cited from earlier work.
Series [8] relates to PKC. Nature of the series: PKC in perforated fibers of AD transgenic mice (FIG. 8). It is filed as in vivo.
Series [9] deals with α-secretase. To be noted: human fibroblasts, cited from earlier work.
The subject of series [10] is PKC. Nature of the series: PKC activity in cultured rat hippocampal H19-7/IGF-IR cells. In kind it is cell-based. Here is the method:
Cell Culture. Rat hippocampal H19-7/IGF-IR cells (ATCC, Manassas, Va.) were plated onto poly-L-lysine coated plates and grown at 35° C. in DMEM/10% FCS for several days until about 50% coverage was obtained. The cells were then induced to differentiate into a neuronal phenotype by replacing the medium with 5 ml N2 medium containing 10 ng/ml basic fibroblast growth factor at 39° C. and grown in T-75 flasks at 37° C. Human SH-SY5Y neuroblastoma cells (ATCC) were cultured in 45% F 12K/45% MEM/10% FCS. Mouse N2A neuroblastoma cells were cultured in DMEM/10% FCS without glutamine. Rat hippocampal neurons from 18-day-old embryonic
as §2
PKC activators that bind to the diacylglycerol binding site, including bryostatin, gnidimacrin, and phorbol esters, produce a transient activation of PKC activity, followed by a prolonged downregulation. Nelson et al., Trends in Biochem. Sci. 2009; 34: 136-45. This was confirmed in cultured rat hippocampal cells. Incubation of rat 1119-7/IGF-IR cells with (0.04 nM and 0.2 nM) bryostatin produced a 2-fold activation that lasted 30 min, followed by a 20% downregulation that returned to baseline by 24 h (data not shown). […] This sustained activation was only observed in primary neurons.

Molecules are shown by their SMILES. Like-named read-outs stand apart in the source and are kept apart here.

For `CCC1CC1CC1CC1CC1CC1CC1CC1CC1CC1CC1CC1CCC(=O)OC` (stereo not shown) [BR-111, methyl-3-(2-((2-((2-((2-((2-((2-ethylcyclopropyl)methyl)cyclopropyl)methyl)cyclopropyl)methyl)-cyclopropyl)methyl)cyclopropyl)methyl)cyclopropyl)propanoate], in series [1], the “change in TACE activity” value is reported as “only produced small increases”. In addition, in series [2], the “levels of both intracellular and secreted Aß” value is “markedly reduced”. Moreover, in [2] (concentrations up to 10 to 100 μM, no evidence of downregulation at higher concentrations), the “concentration dependence of Aß inhibition” value was “monotonically increasing inhibition”. The “concentration needed to activate PKC, relative to BR-101 (DCP-LA)” value in series [3] (compared with BR-101 (DCP-LA)) is “approx. 100 times lower”. In addition, in series [3] (used as methyl esters), the “activation of purified PKC” value is recorded as “activated purified PKC to a similar extent”. Besides, the “change in ECE activity” value in [4] is recorded as “sustained increase”. Also, the “reduction of cellular levels of Aß” value in series [5] is listed as 45-63%. Besides, the “effect on cell survival or proliferation” value in [6] is recorded as “no effect”.
`CCC/C=C/C=C/C(=O)O[C@H]1/C(=C/C(=O)OC)C[C@H]2C[C@H]([C@@H](C)O)OC(=O)C[C@H](O)C[C@@H]3C[C@H](OC(C)=O)C(C)(C)[C@](O)(C[C@@H]4C/C(=C/C(=O)OC)C[C@H](/C=C/C(C)(C)[C@]1(O)O2)O4)O3` [bryostatin]: in [1], the “change in TACE activity” value is given as “only produced small increases”. Moreover, the “levels of both intracellular and secreted Aß” value in series [2] is listed as “markedly reduced”. In addition, the “change in ECE activity” value in series [4] is “sustained increase”. For the same compound, the rate of learning entry in series [7] is “dramatically increase”. Besides, the “loss of PKC in perforated fibers” value in series [8] is given as “prevents the loss of PKC in perforated fibers”. Besides, the entries for the “increase of initial rate of α-secretase activity” value in series [9] (10 μM) and in [9] (100 μM) were 16 fold and 132 fold, respectively. For the same compound, the “downregulation of PKC following activation” value in [10] (0.04 nM and 0.2 nM) is 20%. Also, the “time of return of PKC to baseline” value in series [10] (0.04 nM and 0.2 nM) is given as at most 24 h. Also, the “activation of PKC activity” value in [10] (0.04 nM and 0.2 nM, data not shown) came out at 2 fold. For the same compound, in [10] (8 h, data not shown), the “downregulation of PKC activity” value is reported as “at or near the baseline”.
